Results reported in patent publication US9095591B2, “Pharmaceutical composition for use in the treatment of glaucoma” (Institut National de la Sante et de la Recherche Medicale …, priority 2010, dated 2015).
“Also recorded” adds a separate entry of the source.

How the values were obtained:
[1] = tested on: rat model of surgically-induced glaucoma; assay: Intraocular pressure (IOP, TonoPen) in rat model of surgically-induced glaucoma (episcleral vein cauterization); type: in vivo, Brown Norway rats; details: for effect on IOP in control (nonglaucomatous, non-operated) eyes: subconjunctival injection; for effect on IOP in glaucomatous eyes (CXCR4 antagonist comparison): subconjunctival injections, FIG. 3
Procedure: In order to test the functionality of putative CXCR3 blocking compounds on intraocular pressure (IOP), an in vivo test is necessary. For that purpose a model of local eye hypertonia is highly relevant. The model of ocular hypertonia in rats by episcleral vein occlusion (Garcia-Valenzuela et al., 1995) as described in the figures can be used to test such molecules.
Subconjunctival injections of NBI74330 (1 μM) or vehicle were performed in glaucoma eyes and in control eyes. One single injection of NBI (A) induced a reduction in IOP during 3 days (p<0.001). Two injections of NBI (A and B) induced a decrease in IOP during 12 days (p<0.001). […] (In vivo measurements of the IOP using TonoPen).
Male 8-week-old Brown Norway rats weighing 300-400 g were housed in Jussieu animal house (UMRS968, Vision Institute, Paris, France). All experiments were conducted in accordance with the Association for Research in Vision and Ophthalmology for the Use of Animals in Ophthalmic research. Ocular integrity was checked using slit lamp biomicroscope. Surgical model of elevated IOP was induced in the right eye of each rat by cauterization of three episcleral veins after conjunctival dissection as previously reported [Bayer A U et Al., 2001 and Garcia-Valenzuela E et Al., 1995] under general anaesthesia (intra peritoneal injection of ketamine 75 mg/kg and xylazine 10 mg/kg). Left eyes underwent conjunctival dissection only as controls. After the surgery, animals were maintained for a 1-month period and monitored for IOP three times a week using a handheld tonometer (Tonopen, Medtronics, Jacksonville, Fla.) without sedation. 30 animals presenting a stable elevated IOP were included and randomly divided in three equal groups: in both eyes, 10 rats received one subconjunctival injection of NBI74330 (1 μM, 100 μl), […], and 10 rats received a vehicle injection (PBS, 100 μl). IOP was monitored every two days by one independent person i.e. who was blind of the treatment. At the end of the experiments, animals were euthanized and the eyes were immediately conditioned for IHC.

trabecular meshwork = assay: Trabecular percent effective filtration length (fluorescent microsphere injection, ex vivo confocal imaging of TMs); type: in vivo, Brown Norway rats; details: glaucomatous eyes; 1 μM, 100 μL, two subconjunctival injections
Procedure: (§1) Aqueous humor outflow was measured by in vivo fluorophotometry (FIG. 4A) and the trabecular aqueous outflow evaluated by fluorescent microsphere injection and ex vivo confocal imaging of TMs (data not shown). […] In parallel, rat TM tissues were assessed for cellularity and apoptosis by immunohistofluorescence and TUNEL-labeling.

[2] = tested on: rat model of surgically-induced glaucoma; assay: Aqueous humor outflow by in vivo fluorophotometry in rat glaucoma model; parameters: species or system Brown Norway rats; details: glaucomatous eyes vs vehicle-treated; 1 μM, 100 μL, two subconjunctival injections
Procedure: as §1

retinal ganglion cells = assay: Apoptosis of Schlemm cells, retinal cells and retinal ganglion cells by TUNEL-labeling in rat glaucoma model; type: in vivo, Brown Norway rats
From the text: (§2) Eyes were conditioned into cryosections and assessed for apoptosis using TUNEL-labeling. TM was identified in each cryosections as a pigmented slim tissue on the posterior sclera-cornea beside the iris root and just above the endothelial Schlemm's canals.
Moreover, NBI-related reduction in IOP was associated with a decrease in retinal ganglion cell apoptosis as assessed by TUNEL-labeling (4.01±0.86, 11.11±3.62, and 5.73±1.15 apoptotic retinal ganglion cells/mm for control eyes, untreated glaucomatous eyes, and NBI-treated glaucomatous eyes, respectively; P<0.05 between each group).

trabecular cells = assay: Trabecular cell apoptosis by TUNEL-labeling in rat glaucoma model; type: in vivo, Brown Norway rats; details: glaucoma eyes treated vs untreated
Procedure: as §2
Investigations were conducted in order to study mechanisms involved in the NBI-74330-related decrease in IOP. Aqueous humor outflow was measured by in vivo fluorophotometry (FIG. 4A) and the trabecular aqueous outflow evaluated by fluorescent microsphere injection and ex vivo confocal imaging of TMs (data not shown). […] This decrease in trabecular outflow facility is similar to what is observed during hypertensive POAG in humans. […] In parallel, rat TM tissues were assessed for cellularity and apoptosis by immunohistofluorescence and TUNEL-labeling.

[3] = glaucoma eyes treated vs untreated

SMILES	effect on IOP in control (nonglaucomatous, non-operated) eyes [1]	effect on IOP in control (nonglaucomatous, non-operated) eyes ([1]; listed as AMD-3100)	effect on IOP in glaucomatous eyes (CXCR4 antagonist comparison) ([1]; glaucomatous eyes (n=20))	effect on IOP in glaucomatous eyes (CXCR4 antagonist comparison) ([1]; glaucomatous eyes (n=20), listed as AMD-3100)	percent effective filtration length (PEFL), trabecular filtrating surface (trabecular meshwork)	aqueous humor outflow (AHO) [2]	effect on IOP in control (nonglaucomatous, non-operated) eyes ([1]; listed as NBI-74330)	duration of reduction in IOP ([1]; glaucoma eyes, one single subconjunctival injection, 1 μM, p<0.001) [days]	IOP after a second injection ([1]; glaucoma eyes, second subconjunctival injection 4 days after the first one)	time course of IOP lowering after a single injection ([1]; glaucoma eyes, single subconjunctival injection 1 μM, 100 μl)	duration of decrease in IOP ([1]; glaucoma eyes, two subconjunctival injections, 1 μM, p<0.001) [days]	dose dependence of IOP reduction ([1]; glaucomatous eyes (n=20), FIG. 2)	effect on IOP in glaucoma eyes ([1]; surgically-induced elevated IOP, subconjunctival injection 1 μM, 100 μl)	retinal ganglion cell apoptosis (TUNEL) (retinal ganglion cells; NBI-treated glaucomatous eyes, control eyes 4.01±0.86, untreated glaucomatous eyes 11.11±3.62, P<0.05)	TUNEL labeling of endothelial Schlemm cells (retinal ganglion cells; [3])	TUNEL labeling of retinal cells (inner nuclear layer and ganglion cell layer) (retinal ganglion cells; [3])	trabecular cell apoptosis (TUNEL) (trabecular cells)	trabecular cell apoptosis (TUNEL) (trabecular cells; listed as NBI-74330)
c1cc(CN2CCCNCCNCCCNCC2)ccc1CN1CCCNCCNCCCNCC1 [AMD3100]	did not affect the IOP; also recorded: had no effect on the basal IOP level	had any effect on IOP	did not affect the IOP	did not influence IOP	–	–	–	–	–	–	–	–	–	–	–	–	–	–
CCOc1ccc(-n2c(C(C)N(Cc3cccnc3)C(=O)Cc3ccc(F)c(C(F)(F)F)c3)nc3ncccc3c2=O)cc1 (stereo not shown) [NBI74330]	did not influence the IOP; also recorded: had no effect on the basal IOP level	–	–	–	significantly improved	AHO was improved; also recorded: aqueous humor outflow impairment was significantly reversed	had any effect on IOP	3	a significantly low IOP was maintained until the end of the experiments	significant the 2nd to the 5th day after the treatment, reaching the average IOP level of control eyes	12	reduced the IOP in glaucomatous eyes (n=20) in a dose-dependent manner	induced an IOP lowering	5.73±1.15 apoptotic retinal ganglion cells/mm	more TUNEL labeling in the untreated glaucoma eyes than in glaucoma eyes treated with NBI74330	more TUNEL labeling in the untreated glaucoma eyes than in glaucoma eyes treated with NBI74330	Apoptosis was higher in trabecular cells of untreated glaucoma eyes than in glaucoma eyes treated with NBI74330	Trabecular apoptosis was reversed; also recorded: significantly reduced the amount of apoptotic TCs
